Results as given in patent USRE36139E, “Hydroquinone derivative” (Nippon Hypox Laboratories Incorporated, priority 1995, dated 1999).

Tests used:
[1] = test system: lipid of rat liver microsome; assay: Inhibition activity against hyperoxidation of lipid of rat liver microsome; format: biochemical, male Sprague Dawley (SD) rats; conditions: for antioxidant activity: general statement in words, no test named at the place; for antioxidant activity (conclusion from Table 2): result in words
Method: [Inhibition activity against hyperoxidation of lipid of rat liver microsome ] (1) Preparation of rat liver microsome suspension, A plurality of male Sprague Dawley (SD) rats (weighing […]) were prepared. Each rat was anesthetized with pentobarbital, and then subjected to celiotomy. A cannula was introduced into the portal vein of each rat, the abdominal large veins were sectioned, and 500 ml of cold 0.9% NaCl was injected into the portal veins. Livers were extracted from individual rats, and the livers were cut to pieces in 1.15% KCl and homogenized with ice cooling. Then, 1.15% KCl was further added to obtain a 30% liver homogenized solution. The above homogenized solution was centrifugally separated at 8,000 g (g: gravitation acceleration) for 10 minutes, and the resultant supernatant was recovered. […] The so-prepared suspension was stored at -20° C. before a test described in the following (2), and it was used within 1 week after the preparation. (2) Test on inhibition activity against hyperoxidation of lipid As test compounds, the hydroquinone (HQ) derivatives obtained in Preparation Examples 1 to 12, a known hydroquinone derivative which was a compound of the formula (I) in which R^1 was methyl (hereinafter referred to as HQ1) and BHT were respectively tested on their inhibition activities against hyperoxidation of lipid in the following manner. First, 0.1 ml of the liver microsome suspension obtained in the above (1), 0.1 ml of reduced […] (NADPH) (final concentration 2 mM), 0.1 ml of adenosine 5'-diphosphate (ADP) (final concentration 10 mM) and 0.1 ml of a solution of one of the test compounds whose concentration was adjusted as shown in Table 2 with 10% dimethylformamide (DMF) were added to a tris-HCl buffer (167 mM KCl, 74 mM tris-HCE buffer (TRIS), pH 7.4), and the resultant mixture was warmed at 37° C. for 5 minutes. Then, 0.1 ml of FeCl3 (final concentration 0.1 mM) was added, and the mixture was warmed at 37° C. for 20 minutes. […] Then, 0.2 ml of 8.1% sodium dodecylsulfate (SDS), 1.5 ml of an acetic acid buffer (prepared by adjusting 20% acetic acid containing 0.27 mM HCl to pH 3.5 with 10N NaOH) and 1.5 ml of 0.8% thiobarbituric acid were added to the cooled reaction mixture, and the resultant mixture was warmed over a boiling water bath for 20 minutes. […] The mixture was vigorously stirred. The reaction mixture was centrifugally separated at 2,000 rpm for 10 minutes, and the resultant supernatant was measured for an absorbance at 532 nm to determine a thiobarbituric acid reaction amount. […] In Control, the solution of the test compound in 10% DMF was replaced with 0.1 ml of a 10% DMF solution, and the above procedures were repeated to determine a peroxidized lipid amount. In Blank, each of 0.1 ml of NDAPH, 0.1 ml of ADP and 0.1 ml of FeCl3 were replaced with 0.1 ml of water, the solution of the test compound in 10% DMF was replaced with 0.1 ml of a 10% DMF solution, and the above procedures were repeated to determine a peroxidized lipid amount. The inhibition ratio of the lipid peroxidation reaction was calculated on the basis of the following equation. Inhibition ratio (%)=[1-(OD1 -OD3)/(OD2 -OD3)]×100 OD1 : Absorbance when test compound is added. OD2 : Absorbance of Control OD3 : Absorbance of Blank

mice = assay: Acute toxicity test by simple oral administering; format: in vivo, Female ICR mice; conditions: maximum dose 500 mg/kg, 14 days observation
Excerpt: Female ICR mice of 8 weeks age were used to carry out an acute toxicity test by simple oral administering.

[2] = DPPH elimination ability (active organic radical species elimination ability); format: biochemical; conditions: FIG. 1; absorbance at 517 nm; 0.02 ml of 10^-2 M DMF solution added to 2 ml of 10^-4 M DPPH in ethanol; result in words
Method: [DPPH elimination ability]
The hydroquinone derivative obtained in Preparation Example 5 and BHT as test compounds were measured for the ability to eliminate DPPH (α,α-diphenyl-β-picrylhydrazyl) (active organic radical species elimination ability) in the following manner.
The test compounds were respectively dissolved in DMF to prepare DMF solutions having a test compound concentration of 10^-2 M.
Then, 0.02 ml each of the above DMF solutions were respectively added to 2 ml of an ethanol EtOH solution containing 10^-4 M of DPPH, and the resultant solutions were measured for absorbance (ODS) at 517 nm at predetermined time intervals. The DPPH elimination ability of each test compound was determined on the basis of these measurement results. In Control, the DMF solution of the test compound was replaced with DMF itself,
The elimination ability of each test compound was determined as a reduction ratio of ODS to the absorbance in Control.

Salmonellae = conditions: result in words; cited from earlier work
laboratory animals = conditions: result in words; cited from earlier work
rats = conditions: liver, large intestine, small intestine and gland of external acoustic meatus; cited from earlier work

SMILES: CCCCCCCCCCCCOc1cc(C)c(O)c(C)c1C [Preparation Example 7]
- Inhibition ratio of lipid peroxidation ([1]; 10^-5 M test compound, 10 µM): 63.9%
- Inhibition ratio of lipid peroxidation ([1]; 10^-6 M test compound, 1 µM): 30.8%

SMILES: CCCCCCOc1c(C)cc(O)c(C)c1C [Preparation Example 8]
- Inhibition ratio of lipid peroxidation ([1]; 10^-5 M test compound, 10 µM): 98.3%
- Inhibition ratio of lipid peroxidation ([1]; 10^-6 M test compound, 1 µM): 40%

SMILES: CCCCOc1cc(C)c(O)c(C)c1C [Preparation Example 3, 1-butyl-2,3,5-trimethylhydroquinone]
- Inhibition ratio of lipid peroxidation ([1]; 10^-6 M test compound, 1 µM): 75.9%

SMILES: CCCCCCCCCCCCOc1ccc(O)cc1 [Preparation Example 11, 1-dodecylhydroquinone]
- Inhibition ratio of lipid peroxidation ([1]; 10^-5 M test compound, 10 µM): 73.4%
- Inhibition ratio of lipid peroxidation ([1]; 10^-6 M test compound, 1 µM): 6.3%
- antioxidant activity [1]: excellent antioxidant activity

SMILES: CCCCCCCCOc1ccc(O)cc1 [Preparation Example 1]
- Inhibition ratio of lipid peroxidation ([1]; 10^-5 M test compound, 10 µM): 99.7%
- Inhibition ratio of lipid peroxidation ([1]; 10^-6 M test compound, 1 µM): 9.8%
- antioxidant activity (conclusion from Table 2) [1]: excellent antioxidant activity over the known hydroquinone derivative HQ1
- mortality (mice): No mice were found to die

SMILES: CCCCCCCCCCOc1cc(C)c(O)c(C)c1C [Preparation Example 6]
- Inhibition ratio of lipid peroxidation ([1]; 10^-5 M test compound, 10 µM): 99.9%
- Inhibition ratio of lipid peroxidation ([1]; 10^-6 M test compound, 1 µM): 38.3%

SMILES: CCCCCCCCOc1cc(C)c(O)c(C)c1C [Preparation Example 5]
- Inhibition ratio of lipid peroxidation ([1]; 10^-5 M test compound, 10 µM): 100.0%
- Inhibition ratio of lipid peroxidation ([1]; 10^-6 M test compound, 1 µM): 74.8%
- DPPH elimination ability [2]: excellent DPPH elimination ability over BHT

SMILES: CCCCOc1ccc(O)cc1 [Preparation Example 9, 1-butylhydroquinone]
- Inhibition ratio of lipid peroxidation ([1]; 10^-5 M test compound, 10 µM): 86.1%
- Inhibition ratio of lipid peroxidation ([1]; 10^-6 M test compound, 1 µM): 10.8%
- antioxidant activity [1]: excellent antioxidant activity

SMILES: CCCCCCOc1ccc(O)cc1 [Preparation Example 10]
- Inhibition ratio of lipid peroxidation ([1]; 10^-5 M test compound, 10 µM): 99.1%
- Inhibition ratio of lipid peroxidation ([1]; 10^-6 M test compound, 1 µM): 8.8%
- antioxidant activity [1]: excellent antioxidant activity

SMILES: CCCCCCOc1cc(C)c(O)c(C)c1C [Preparation Example 4]
- Inhibition ratio of lipid peroxidation ([1]; 10^-5 M test compound, 10 µM): 100.0%
- Inhibition ratio of lipid peroxidation ([1]; 10^-6 M test compound, 1 µM): 98.9%

SMILES: Cc1cccn2c1nc1ccc(N)nc12 [Glu-P-1, 2-amino-6-methyldipyrido[1,2-a:3',2'-d]imidazole]
- mutagenic activity (Salmonellae): high mutagenic activity to Salmonellae
- carcinogenic activity (laboratory animals): carcinogenic activity to laboratory animals
- incidence of cancer (rats): high rate of incidence of cancer

SMILES: CCCCCCCCCCOc1ccc(O)cc1 [Preparation Example 2]
- Inhibition ratio of lipid peroxidation ([1]; 10^-5 M test compound, 10 µM): 79.5%
- Inhibition ratio of lipid peroxidation ([1]; 10^-6 M test compound, 1 µM): 1.8%
- antioxidant activity (conclusion from Table 2) [1]: excellent antioxidant activity over the known hydroquinone derivative HQ1

SMILES: COc1ccc(O)cc1 [HQ1, reference compound]
- Inhibition ratio of lipid peroxidation ([1]; 10^-5 M test compound, 10 µM): 37.8%

SMILES: CCOc1cc(C)c(O)c(C)c1C [Preparation Example 12, 1-ethyl-2,3,5-trimethylhydroquinone]
- Inhibition ratio of lipid peroxidation ([1]; 10^-5 M test compound, 10 µM): 87.2%
- mortality (mice): No mice were found to die
